Measured values published in patent US20250313577A1, “TRICYCLIC PYRIDONES AND PYRIMIDONES” (ERASCA, INC, priority 2022, published 2025).

Target: T1, KRAS G12C (Homo sapiens, UniProt P01116, G12C)
T1 construct: expressed in transfected cells; host or cells: Ras Initiative (RI) KRAS G12C cells
Test: phospho-ERK HTRF assay in Ras Initiative (RI) KRAS G12C cells
Type: cell-based
Settings: phospho-ERK1/2 HTRF, 11-point dose response from 2,500 nM, treatment for either 4 hours or 16 hours, read-out: pERK (RI)
Method: Inhibition of KRAS G12C-Mediates Phospho-ERK1/2 Inhibition by Compounds of Formula I
This Example illustrates that various compounds of the present disclosure inhibit KRAS G12C thereby mediating the downstream inhibition of phospho-ERK1/2.
KRAS G12C mutant cell lines, NCI H358 (ATCC, CRL-5807), and Ras Initiative (R1) KRAS G12C were cultured according to published protocols and maintained at 37° C. in 5% CO2. The phospho-ERK HTRF assay was executed following provider's protocol (CisBio #64AERPEH). NCI-H358 or RI KRAS G12C cells were plated at a density of 50,000 cells per well in a 96-well plate (Corning #3903) in respective medias (for NCI-H358, RPMI+10% FBS+1% Pen/Strep, and for RI KRAS G12C, DMEM+10% FBS+1% Pen/Strep+4 ug/ml Blasticidin) and maintained at 37° C. in 5% CO2. Cells were allowed to adhere overnight and treated the following day with a Tecan D300e Digital Dispenser (Tecan Group Ltd., Switzerland) using an 11-point dose response starting at 2,500 nM of exemplified compounds followed by sequential 1:3 dilutions for either 4 hours or 16 hours. Following compound treatment, the cells were washed once with ice-cold PBS. Cells were lysed by adding 50 μl of lysis buffer (1×) supplemented with 1× Pierce Halt Protease and Phosphatase inhibitor and incubated for 30 minutes at 4° C. with shaking. After lysis, 16 μL of cell lysate from the 96-well cell-culture plate was transferred to a 384-well plate (Perkin Elmer #6007290). The premixed antibody solution was prepared by mixing (vol/vol) advanced phospho-ERK1/2 d2 antibody and advanced phospho-ERK1/2 Eu Cryptate antibody. The premixed antibody solution ([…]) was added to the detection plate containing cell lysate. The detection plate was incubated overnight at 4° C., the HTRF signal was read the next day by using either a Spectramax M5 or Spectramax i3 microplate reader (Molecular Devices, San Jose, CA, USA), and data was processed according to manufacturer's protocol.
Compounds prepared according to the preceding procedures and characterized for inhibition of p-ERK according to the protocol provided herein are summarized in Table 3: […]

T1 sequence (P01116 1-188 isoform P01116-2 G12C): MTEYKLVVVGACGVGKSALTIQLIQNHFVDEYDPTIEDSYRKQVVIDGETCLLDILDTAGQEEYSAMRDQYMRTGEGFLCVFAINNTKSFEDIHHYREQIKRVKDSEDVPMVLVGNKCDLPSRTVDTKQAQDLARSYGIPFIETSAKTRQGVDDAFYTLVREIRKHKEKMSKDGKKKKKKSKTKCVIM

In the case of `C=CC(=O)N1[C@H](C)CN(c2nc(=O)n3c4c(c(-c5cc(Cl)c(F)cc5F)c(C(F)(F)F)cc24)SC[C@@H](c2ccncc2)C3)C[C@@H]1C` (atropisomer, axis not shown) [Example 100B, (3S)-8-((3S,5R)-4-acryloyl-3,5-dimethylpiperazin-1-yl)-11-(5-chloro-2,4-difluorophenyl)-3-(pyridin-4-yl)-10-(trifluoromethyl)-3,4-dihydro-2H,6H-[1,4]thiazepino[2,3,4-ij]quinazolin-6-one], the IC50 is reported as 0.5 to 2 nM.
